Data on 14 compounds can be found in publication PMC5648829 (Scientific Reports, 2017).

As a reminder, the IC50 is the concentration that inhibits the measured activity by half.

Where “and” joins values, the source holds several entries; their conditions need not be identical. Identical values can stand only once. Where a SMILES comes first, the peptide text is derived from it. Some results are limits rather than exact numbers.

Data set [1] has as its target T1, LTA4H (Homo sapiens, UniProt P09960).
T1 sequence (P09960 1-611): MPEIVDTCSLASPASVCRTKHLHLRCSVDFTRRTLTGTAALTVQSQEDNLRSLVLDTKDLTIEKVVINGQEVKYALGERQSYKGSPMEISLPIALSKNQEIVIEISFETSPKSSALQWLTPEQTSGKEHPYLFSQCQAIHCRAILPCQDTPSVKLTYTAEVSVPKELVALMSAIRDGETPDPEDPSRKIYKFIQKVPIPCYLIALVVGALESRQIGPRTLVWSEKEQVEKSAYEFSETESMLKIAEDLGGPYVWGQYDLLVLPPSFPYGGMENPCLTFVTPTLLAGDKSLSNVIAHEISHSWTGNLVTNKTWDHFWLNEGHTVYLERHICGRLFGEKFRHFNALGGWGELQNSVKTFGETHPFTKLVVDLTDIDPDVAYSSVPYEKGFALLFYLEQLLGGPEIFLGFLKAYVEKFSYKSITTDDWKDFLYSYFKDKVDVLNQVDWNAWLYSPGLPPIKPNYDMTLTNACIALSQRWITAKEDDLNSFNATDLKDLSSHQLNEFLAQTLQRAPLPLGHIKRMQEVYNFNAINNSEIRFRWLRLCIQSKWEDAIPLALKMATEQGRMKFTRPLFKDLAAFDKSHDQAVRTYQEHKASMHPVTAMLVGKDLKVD
Kind of data set: PGP peptidolysis assay by LC-MS/MS. The format is biochemical. Also on record: Full-length LTA4H containing a N-terminal (His)6-tag; (His)6-tag (N, cleaved yes); (Gly3-Ser)3 spacer (N, cleaved yes); made in house; host or cells: E. coli BL21 (DE3) star. The protocol:
The aminopeptidase activity of LTA4H was assessed with H-PGP-OH (Bachem, Switzerland) as substrate. Assays were performed at RT in black 384-well low volume plates (Greiner) and analyzed by LC-MS/MS. All compounds were tested as 8 point dose response curves in triplicates included on every plate. 3 µl of compound diluted in assay buffer (Tris (50 mM), NaCl (150 mM), CaCl2 (10 mM) at pH7.5) was transferred to the plate followed by 3 µl of enzyme solution (20 nM LTA4H in assay buffer). The enzyme compound mixture was incubated at room temperature for 15 min prior to the addition of 6 µl substrate solution (800 µM PGP in assay buffer). Upon addition of the substrate, the plate was placed on a shaker at 25 °C for 40 min. The reaction was stopped by addition of 12 µl formic acid (0.2% v/v). The final concentration of the enzyme in the assay was 5 nM, the PGP 400 µM and the compound concentration range was from 50000 nM to 3.2 nM. For peptide quantification, an HPLC instrument from Agilent Series 1290 (binary high pressure gradient system) with detectors UV, fluorescence and mass (single Quad) detectors was used. HPLC was done using an Atlantis T3 column (C18 100 × 2.1mm, […], 100 Å) with A: water (MQ) + 0.1% formic acid and B: acetonitrile + 0.1% formic acid: 0–0.3 min 0% buffer B, then increased to 100% buffer B at 0.31–0.65 min and again decreased to 0% buffer B at 0.66–0.70 min. Flow was set to 1.5 ml/min with start gradient pressure of 400 bar.

Data set [2] concerns the target T1, LTA4H. In words: LTA4H aminopeptidase assay with surrogate substrate Arg-AMC. The data set is classed as biochemical. Also on record: Full-length LTA4H containing a N-terminal (His)6-tag; (His)6-tag (N, cleaved yes); (Gly3-Ser)3 spacer (N, cleaved yes); made in house; host or cells: E. coli BL21 (DE3) star. The protocol:
(§1) The LTA4H aminopeptidase assays were run using several surrogate substrates: Arg-Rho110-D-Pro (Arg-Rho, Biosyntan GmbH, Germany) or Arg-AMC (Bachem, Switzerland), Pro-AMC (Bachem, Switzerland) and Ala-AMC (Bachem, Switzerland). Assays were performed at RT in 1536-well plates in Tris buffer, pH 7.2 containing NaCl (100 mM), CaCl2 (2 mM), CHAPS (0.5%) and BSA (0.1%). […] The reaction was incubated between 1–2 h (depending on substrate) prior to reading the increase in fluorescence on an EnVision.

Data set [3] addresses T1, LTA4H. Kind of data set: LTA4H aminopeptidase assay with surrogate substrate Ala-AMC. The format is biochemical. Also on record: Full-length LTA4H containing a N-terminal (His)6-tag; (His)6-tag (N, cleaved yes); (Gly3-Ser)3 spacer (N, cleaved yes); made in house; host or cells: E. coli BL21 (DE3) star. As to conditions: for Effect on Ala-AMC hydrolysis: Table 1, whether compound increased or inhibited hydrolysis of Ala-AMC by the enzyme; for IC50: Table 2. The protocol:
as §1

In data set [4] the target is T1, LTA4H. In words: LTA4H aminopeptidase assay with surrogate substrate Pro-AMC. More on the design: Full-length LTA4H containing a N-terminal (His)6-tag; (His)6-tag (N, cleaved yes); (Gly3-Ser)3 spacer (N, cleaved yes); made in house; host or cells: E. coli BL21 (DE3) star. The format is biochemical. The protocol: as §1
The nature of data set [5]: PGP degradation assay in BALF ex-vivo (LC-MS/MS). The data set is classed as in vitro ADME, mouse. As to conditions: BALF of wt and LTA4H-KO mice, 24 h at 37 °C, compared with PBS. How it is done: 200 µl of BALF were spiked with PGP and Ac-PGP at the final concentration of 10 nM. […] After incubation, samples were filtered (Amicon Ultra-0.5, Membrane Ultracel-30, PMNL 30 kD) by centrifugation (3 min at 10,000 × g). Filtered samples were transferred to vials for liquid chromatography tandem mass spectrometry (LC-MS/MS) analysis. The LC system consisted of an Acquity UPLC I-Class interfaced with a Xevo-TQS triple quadruple MS (Waters). […] PGP was monitored with MRM m/z transitions of 270.1 > 173.1 (quantifier) and 270.1 > 70.1 and 270.1 > 116.1 (qualifiers). Ac-PGP was monitored with m/z transitions of 312.2 > 112.1 (quantifier) and 312.2 > 116.1 and 312.2 > 140.1 (qualifiers).

The test system of data set [6] is human neutrophils. Kind of data set: Human neutrophil shape change assay. The format is cell-based. As to conditions: isolated human neutrophils. How it is done:
Neutrophils were purified by Ficoll density gradient centrifugation from human blood and incubated with graded concentrations of PGP, Ac-PGP or the known neutrophil chemoattractant GROα in assay buffer containing BSA (0.1%) in PBS for 10 min at 37 °C, 5% CO2 and 90% humidity. Cells were then fixed and shape change analyzed by flow cytometry.

Data set [7] has as its system human neutrophils. In words: Human neutrophil chemotaxis assay. The data set is classed as cell-based. The protocol: Purified human neutrophils were labeled with calcein-AM (Fluka, Buchs, Switzerland). Test compounds (PGP, Ac-PGP, RTR, and Ac-RTR) or IL-8 (Sigma) as positive chemoattractant control were diluted in RPMI containing BSA (0.1%) and added at graded concentrations into the wells of a 96-well ChemoTX plate (3.2 mm diameter, 5 µm pore size; NeuroProbe, Gaithersburg, MD). Labeled cells (50,000 per well) were added onto the filters above the wells that received the test compounds. Plates were incubated for 90 min at 37 °C. The filters were removed and fluorescence in the receiving wells was measured using a SpectraMAX Gemini EM instrument (Molecular Devices, Sunnyvale, CA; λex = 485 nm; λem = 538 nm). The chemotactic index was measured as the ratio of fluorescence in the test wells and in control (buffer only) wells.

Where [8] appears, read: Table 1, average of minimum two biological replicates, read-out: IC50 Arg-AMC.
Setting [9] is: Table 1, read-out: IC50 Pro-AMC.
Setting [10] is: Table 2, read-out: IC50 Arg-AMC.
The mark [11] stands for this setting: Table 2, read-out: IC50 Pro-AMC.

As for `COc1ccc(Cc2ccccc2)cc1` [4-MDM, 4-Methoxydiphenylmethane, reference compound], the “Ratio IC50 PGP/Arg-AMC” value in data set [1] (Table 1) turned out to be 0.42. The IC50 turned out to be 4220 nM in data set [1] (Table 1, read-out: IC50 PGP); 10100 nM in data set [2] (setting [8]); 33600 nM in data set [4] (setting [9]). Also, the “Effect on Ala-AMC hydrolysis” value in data set [3] is reported as “increase”.

On to `Nc1nc(-c2ccc(Cc3ccccc3)cc2)cs1` [ARM-1, 4-(4-benzylphenyl) thiazol-2-amine, reference compound], for which the “Ratio IC50 PGP/Arg-AMC” value in data set [1] (Table 1) was determined as 0.40. In addition, the concentration for half-maximal inhibition (IC50) in data set [1] (Table 1, read-out: IC50 PGP) stood at 390 nM; in data set [2] (setting [8]), 970 nM; in data set [4] (setting [9]), 1030 nM. Besides, the “Effect on Ala-AMC hydrolysis” value in data set [3] was “increase”.

Take `CC(=O)N1CCC[C@H]1C(=O)NCC(=O)N1CCC[C@H]1C(=O)O` [Ac-PGP, N-acetly-Pro-Gly-Pro] (Ac-Pro-Gly-Pro-OH): the “Ac-PGP stability in exudates” value in data set [5] was “remained as stable over 24 h at 37 °C as in PBS”.

Regarding `c1ccc(Cc2ccc(-c3c[nH]cn3)cc2)cc1` [Compound 2, 4-(4-benzylphenyl)-1H-imidazole], the “Ratio IC50 PGP/Arg-AMC” value in data set [1] (Table 1) stood at 1.4. Besides, the IC50 in data set [1] (Table 1, read-out: IC50 PGP) came to 380 nM; in data set [2] (setting [8]), 270 nM; in data set [4] (setting [9]), 280 nM. Also, the “Effect on Ala-AMC hydrolysis” value in data set [3] is “increase”.

`c1ccc(Oc2ccc(-c3c[nH]cn3)cc2)cc1` [Compound 6, 5-(4-phenoxyphenyl)-1H-imidazole]: the half-inhibitory concentration (IC50) in data set [1] was found to be 45 nM; in data set [2], 64 nM; in data set [4] it was 77 nM.

For the compound `Cn1cnc(-c2ccc(Oc3ccccc3)cc2)c1` [Compound 7, 1-methyl-4-(4-phenoxyphenyl)-1H-imidazole], in data set [1] (Table 1), the “Ratio IC50 PGP/Arg-AMC” value came out at 0.49. The IC50 was found to be 1400 nM in data set [1] (Table 1, read-out: IC50 PGP); 2870 nM in data set [2] (setting [8]); 1690 nM in data set [4] (setting [9]). Further, the “Effect on Ala-AMC hydrolysis” value in data set [3] was “increase”.

Turning to `Oc1cc(-c2ccc(Oc3ccccc3)cc2)n[nH]1` [Compound 8, 3-(4-phenoxyphenyl)-1H-pyrazol-5-ol], in data set [1] (Table 1), the “Ratio IC50 PGP/Arg-AMC” value is 1.44. For the same compound, the IC50 in data set [1] (Table 1, read-out: IC50 PGP) came to 1870 nM; in data set [2] (setting [8]), 1300 nM; in data set [4] (setting [9]), 1350 nM. Also, the “Effect on Ala-AMC hydrolysis” value in data set [3] was “increase”.

Turning to `c1ccc(Oc2ccc(-c3cc[nH]c3)cc2)cc1` [Compound 9, 3-(4-phenoxyphenyl)-1H-pyrrole], the “Ratio IC50 PGP/Arg-AMC” value in data set [1] (Table 1) is 0.07. The IC50 in data set [1] (Table 1, read-out: IC50 PGP) was determined as 35 nM; in data set [2] (setting [8]), 480 nM; in data set [4] (setting [9]), 470 nM. Also, the “Effect on Ala-AMC hydrolysis” value in data set [3] is “increase”.

Turning to `OCc1ccc(Oc2nc3ccccc3s2)cc1` [Compound 14], the “Ratio IC50 PGP/Arg-AMC” value in data set [1] (Table 2, fold selectivity) is on record as 0.34. In addition, the IC50 was 76 nM in data set [1] (Table 2, read-out: IC50 PGP); 225 nM in data set [2] (setting [10]); over 25000 nM in data set [3]; 152 nM in data set [4] (setting [11]).

For the compound `O=Cc1ncc(Oc2nc3ccccc3s2)cn1` [Compound 16], the concentration for half-maximal inhibition (IC50) is 11200 nM in data set [1] (Table 2, read-out: IC50 PGP); 2580 nM in data set [2] (setting [10]); over 25000 nM in data set [3]; 15700 nM in data set [4] (setting [11]).

For `O=Cc1ccc(Oc2nc3ncccc3s2)cn1` [Compound 17, 5-(thiazolo[4,5-b]pyridin-2-yloxy)picolinaldehyde], the “Ratio IC50 PGP/Arg-AMC” value in data set [1] (Table 2, fold selectivity) was 14 and 13.5. Moreover, the IC50 in data set [1] (Table 2, read-out: IC50 PGP) was 1110 nM; in data set [2] (setting [10]), 82 nM; in data set [3], 550 nM; in data set [4] (setting [11]), 560 nM.

“GROα: known chemokine and neutrophil chemoattractant”: the “ED50 neutrophil shape change” value in data set [6] is recorded as “approximately 0.2 nM”.

Take IL-8: positive chemoattractant control: in data set [7] (concentration as low as 10 nM), the neutrophil chemotaxis result is on record as “substantial chemotaxis”.

As for arginine-threonine-arginine [RTR], the neutrophil chemotaxis entry in data set [7] (graded concentrations up to mM range, 90 min at 37 °C) is “entirely negative”.
